SMILES strings stand for the structures.

We go through 38 molecules from patent US7067665B2, “Oxybenzamide derivatives useful for inhibiting factor Xa or Vlla” (Sanofi-Aventis Deutschland GmbH, priority 2000, dated 2006).

T1 sequence (P00742 235-488 limits assumed): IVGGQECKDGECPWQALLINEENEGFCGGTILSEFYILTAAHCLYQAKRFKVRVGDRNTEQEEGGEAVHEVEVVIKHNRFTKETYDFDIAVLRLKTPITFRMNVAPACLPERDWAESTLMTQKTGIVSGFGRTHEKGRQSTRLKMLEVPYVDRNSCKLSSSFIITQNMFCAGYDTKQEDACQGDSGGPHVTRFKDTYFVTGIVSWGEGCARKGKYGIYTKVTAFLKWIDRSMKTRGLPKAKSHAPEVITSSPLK
T1 sequence (P00742 41-179 partner limits assumed): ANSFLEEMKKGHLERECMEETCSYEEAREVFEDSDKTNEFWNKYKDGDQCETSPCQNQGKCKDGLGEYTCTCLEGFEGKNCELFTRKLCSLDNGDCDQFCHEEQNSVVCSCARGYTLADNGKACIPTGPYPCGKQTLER

The first test has as its target T1, human factor Xa (Homo sapiens, UniProt P00742).
T1 construct: 25 μl human factor Xa (Enzyme Research Laboratories, Inc; South Bend, Ind.); purchased Enzyme Research Laboratories, Inc; South Bend, Ind
The test is described as follows: Factor Xa chromogenic assay (substrate S-2765).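 Further: purified enzyme, compound preincubated with the enzyme for 10 min before substrate addition starts the reaction.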 The settings on record: inhibition constant for inhibition of factor Xa; IC50 corrected for substrate competition; 25° C., enzyme 0.5 nM, substrate 140 μM; read-out: Ki(FXa). The test is classed as biochemical.
As a reminder, the Ki is the equilibrium dissociation constant of an inhibitor or competing ligand from its target. As for `COc1cc(C(=O)NCC2CCN(c3ccncc3)CC2)cc(OCCc2ccc(Cl)cc2)c1Cl` [Example 202, 4-Chloro-3-[2-(4-chloro-phenyl)-ethoxy]-5-methoxy-N-(3,4,5,6-tetrahydro-2H-[1,4′]bipyridinyl-4-ylmethyl)-benzamide], the Ki amounted to 25 nM.

Still in this test, the particulars now being: read-out: Ki(FXa).
Consider `COc1ccc(C(=O)NCC2CCN(c3ccncc3)CC2)cc1Oc1nc2ccc(Cl)cc2s1` [Example 94], for which the Ki was determined as 760 nM. Take `COc1ccc(C(=O)NCC2CCN(c3ccncc3)CC2)cc1NS(=O)(=O)c1cc2ccc(Cl)cc2s1` [Example 97, 3-(6-Chloro-benzo[b]thiophene-2-sulfonylamino)-4-methoxy-N-(3,4,5,6-tetrahydro-2H-[1,4′]bipyridinyl-4-ylmethyl)-benzamide]: the Ki came to 3500 nM. Same read-out and setting: the value for `O=C(NCC1CCN(c2ccncc2)CC1)c1cccc(S(=O)(=O)Nc2ccc(Cl)cn2)c1` [Example 99, 3-(5-Chloro-pyridin-2-ylsulfamoyl)-N-(3,4,5,6-tetrahydro-2H-[1,4′]bipyridinyl-4-ylmethyl)-benzamide] was 3710 nM.

Regarding `COc1ccc(C(=O)NCC2CCN(c3ccncc3)CC2)cc1NC(=O)Cc1ccc(Cl)cc1Cl` [Example 100, 3-[2-(2,4-Dichloro-phenyl)-acetylamino]-4-methoxy-N-(3,4,5,6-tetrahydro-2H-[1,4′]bipyridinyl-4-ylmethyl)-benzamide], the Ki is 298 nM.

Regarding `O=C(NCC1CCN(c2ccncc2)CC1)c1cc(OCCc2ccc(Cl)cc2Cl)c[n+]([O-])c1` [Example 102, 5-[2-(2,4-Dichloro-phenyl)-ethoxy]-1-oxy-N-(3,4,5,6-tetrahydro-2H-[1,4′]bipyridinyl-4-ylmethyl)-nicotinamide], the Ki was 636 nM. Same read-out and setting: the value for `COc1ccc(C(=O)NC2CCN(C3CCCCC3)CC2)cc1OCCc1ccc(Cl)cc1Cl` [Example 128, N-(1-Cyclohexyl-piperidin-4-yl)-3-[2-(2,4-dichloro-phenyl)-ethoxy]-4-methoxy-benzamide] was 40900 nM; that for `COc1ccc(C(=O)NC2CCN(C3CCOCC3)CC2)cc1OCCc1ccc(Cl)cc1Cl` [Example 129] was 25200 nM.

Regarding `COc1ccc(C(=O)NCC2CCN(c3ccncc3)CC2)cc1OCC1(c2ccc(Cl)cc2)CC1` [Example 140], the Ki came to 69500 nM. As to `COc1ccc(C(=O)NCC2CCN(c3ccncc3)CC2)cc1OCCc1ccc(Cl)nc1` [Example 145], the Ki worked out at 591 nM. On to `Cc1cc(N2CCC(CNC(=O)c3ccc(Cl)c(OCCc4ccc(Cl)nc4)c3)CC2)ccn1` [Example 167, 4-Chloro-3-[2-(6-chloro-pyridin-3-yl)-ethoxy]-N-(2′-methyl-3,4,5,6-tetrahydro-2H-[1,4′]bipyridinyl-4-ylmethyl)-benzamide], for which the Ki stood at 277 nM.

Take `COc1cc(C(=O)NCC2CCN(c3ccnc(C)c3)CC2)cc(OCCc2ccc(Cl)cc2Cl)c1Cl` [Example 168]: the inhibitory constant (Ki) amounted to 24 nM. Still for that read-out and setting: the value for `COc1ccc(C(=O)NCC2CCN(c3ccnc(C)c3)CC2)cc1OCCc1ccc(Cl)cc1` [Example 171] was 130 nM. Same read-out and setting: for `Cc1ccc(C(=O)NCC2CCN(c3ccnc(Cl)n3)CC2)cc1OCCc1ccc(Cl)cc1Cl` [Example 172, N-[1-(2-Chloro-pyrimidin-4-yl)-piperidin-4-ylmethyl]-3-[2-(2,4-dichloro-phenyl)-ethoxy]-4-methyl-benzamide] the value was 6450 nM; for `O=C(c1ccc(Br)c(OCCc2ccc(Cl)cc2Cl)c1)N1CCN(Cc2ccncc2)CC1` [Example 176, {4-Bromo-3-[2-(2,4-dichloro-phenyl)-ethoxy]-phenyl}-(4-pyridin-4-ylmethyl-piperazin-1-yl)-methanone], 365 nM. For `CCOc1cc(C(=O)N2CCN(Cc3ccncc3)CC2)cc(OCCc2ccc(Cl)cc2Cl)c1OCC` [Example 177, {3-[2-(2,4-Dichloro-phenyl)-ethoxy]-4,5-diethoxy-phenyl}-(4-pyridin-4-ylmethyl-piperazin-1-yl)-methanone], the Ki came to 226 nM. On to `CCOc1cc(C(=O)N2CCN(Cc3ccncc3)CC2)cc(OCCc2ccc(Cl)cc2Cl)c1Br` [Example 180, {4-Bromo-3-[2-(2,4-dichloro-phenyl)-ethoxy]-5-ethoxy-phenyl}-(4-pyridin-4-ylmethyl-piperazin-1-yl)-methanone], for which the inhibitory constant (Ki) turned out to be 255 nM.

Turning to `O=C(c1ccc(Cl)c(OCCc2ccc(Cl)cc2Cl)c1)N1CCN(Cc2ccncc2)CC1` [Example 182, {4-Chloro-3-[2-(2,4-dichloro-phenyl)-ethoxy]-phenyl}-(4-pyridin-4-ylmethyl-piperazin-1-yl)-methanone], the Ki was 312 nM.

For the molecule `CC(C)Oc1ccc(C(=O)N2CCN(Cc3ccncc3)CC2)cc1OCCc1ccc(Cl)cc1Cl` [Example 184, {3-[2-(2,4-Dichloro-phenyl)-ethoxy]-4-isopropoxy-phenyl}-(4-pyridin-4-ylmethyl-piperazin-1-yl)-methanone], the Ki turned out to be 617 nM. In the case of `O=C(c1cc(OCCc2ccc(Cl)cc2Cl)c2c(c1)OCO2)N1CCN(Cc2ccncc2)CC1` [Example 186, {7-[2-(2,4-Dichloro-phenyl)-ethoxy]-benzo[1,3]dioxol-5-yl}-(4-pyridin-4-ylmethyl-piperazin-1-yl)-methanone], the Ki worked out at 401 nM. In the case of `O=C(c1ccc(Cl)c(OCCc2ccc(Cl)cc2Cl)c1)N1CCN(Cc2cc[n+](O)cc2)CC1` [Example 187, {4-Chloro-3-[2-(2,4-dichloro-phenyl)-ethoxy]-phenyl}-[4-(1-oxy-pyridin-4-ylmethyl)-piperazin-1-yl]-methanone], the Ki turned out to be 964 nM. As to `COc1ccc(C(=O)N2CCN(CCCN(C)C)CC2)cc1OCCc1ccc(Cl)cc1Cl` [Example 195], the Ki was 6740 nM.

Consider `COc1ccc(C(=O)N2CCCN(CCCN3CCCC3)CC2)cc1OCCc1ccc(Cl)cc1Cl` [Example 196], for which the Ki was 4270 nM.

As to `COc1ccc(C(=O)N2CCN(CCN(C)C)CC2)cc1OCCc1ccc(Cl)cc1Cl` [Example 197], the Ki came out at 6030 nM. With `COc1ccc(C(=O)N2CCN(CCN3CCCC3)CC2)cc1OCCc1ccc(Cl)cc1Cl` [Example 198], the Ki is 5000 nM. Still for that read-out and setting: for `COc1cc(C(=O)N2CCN(Cc3ccncc3)CC2)cc(OCCc2ccc(Cl)cc2Cl)c1Cl` [Example 200, {4-Chloro-3-[2-(2,4-dichloro-phenyl)-ethoxy]-5-methoxy-phenyl}-(4-pyridin-4-ylmethyl-piperazin-1-yl)-methanone] the value was 108 nM. As for `O=C(NCC1CCN(c2ccncc2)CC1)c1ccc(Cl)c(OCCc2ccc(F)cc2Cl)c1` [Example 207], the Ki stood at 68 nM.

Take `O=C(NCC1CCN(c2ccncc2)CC1)c1ccc(F)c(OCCc2ccc(F)cc2Cl)c1` [Example 215]: the Ki was 59 nM. Still for that read-out and setting: the value for `COc1cc(C(=O)NCC2CCN(c3ccnc(C)c3)CC2)cc(OCCc2ccc(Cl)cc2)c1Cl` [Example 222, 4-Chloro-3-[2-(4-chloro-phenyl)-ethoxy]-5-methoxy-N-(2′-methyl-3,4,5,6-tetrahydro-2H-[1,4′]bipyridinyl-4-ylmethyl)-benzamide] was 72 nM. Same read-out and setting: for `Cc1cc(N2CCC(CNC(=O)c3ccc(Cl)c(OCCc4ccc(Cl)cc4)c3)CC2)ccn1` [Example 223, 4-Chloro-3-[2-(4-chloro-phenyl)-ethoxy]-N-(2′-methyl-3,4,5,6-tetrahydro-2H-[1,4′]bipyridinyl-4-ylmethyl)-benzamide] the value was 44 nM; for `COc1cc(C(=O)NCC2CCN(c3ccncc3)CC2)cc(OCCc2ccc(Cl)cc2)c1Br` [Example 224, 4-Bromo-3-[2-(4-chloro-phenyl)-ethoxy]-5-methoxy-N-(3,4,5,6-tetrahydro-2H-[1,4′]bipyridinyl-4-ylmethyl)-benzamide], 20 nM; for `COc1cc(C(=O)NCC2CCN(c3ccnc(C)c3)CC2)cc(OCCc2ccc(Cl)cc2)c1Br` [Example 225, 4-Bromo-3-[2-(4-chloro-phenyl)-ethoxy]-5-methoxy-N-(2′-methyl-3,4,5,6-tetrahydro-2H-[1,4′]bipyridinyl-4-ylmethyl)-benzamide], 65 nM. Same read-out and setting: the value for `O=C(O)c1cc(OCCc2ccc(Cl)cc2Cl)cc(C(=O)NCC2CCN(c3ccncc3)CC2)c1` [Example 226, 5-[2-(2,4-Dichlorophenyl)-ethoxy]-N-(3,4,5,6-tetrahydro-2H-[1,4′]bipyridinyl-4-ylmethyl)-isophthalamic acid] was 82 nM. Regarding `O=C(NCC1CCN(c2ccncc2)CC1)c1cc(OCCc2ccc(Cl)cc2Cl)cc(C(=O)NCC2CCN(c3ccncc3)CC2)c1` [Example 227, 5-[2-(2,4-Dichloro-phenyl)-ethoxy]-N,N′-bis-(3,4,5,6-tetrahydro-2H-[1,4′]bipyridinyl-4-ylmethyl)-isophthalamide], the Ki came to 58 nM. Consider `COc1cc(C(=O)NCC2CCN(c3cc[n+](O)cc3)CC2)cc(OCCc2ccc(Cl)cc2Cl)c1Cl` [Example 228, 4-Chloro-3-[2-(2,4-dichloro-phenyl)-ethoxy]-5-methoxy-N-(1′-oxy-3,4,5,6-tetrahydro-2H-[1,4′]bipyridinyl-4-ylmethyl)-benzamide], for which the Ki was 220 nM. With `O=C(NCC1CCN(c2cc[n+](O)cc2)CC1)c1ccc(Cl)c(OCCc2ccc(Cl)cc2Cl)c1` [Example 230, 4-Chloro-3-[2-(2,4-dichloro-phenyl)-ethoxy]-N-(1′-oxy-3,4,5,6-tetrahydro-2H-[1,4′]bipyridinyl-4-ylmethyl)-benzamide], the Ki stood at 649 nM. `O=C(NCC1CCN(c2cc[n+](O)cc2)CC1)c1ccc(Cl)c(OCCc2ccc(Cl)cc2)c1` [Example 231, 4-Chloro-3-[2-(4-chloro-phenyl)-ethoxy]-N-(1′-oxy-3,4,5,6-tetrahydro-2H-[1,4′]bipyridinyl-4-ylmethyl)-benzamide]: the Ki is 227 nM.

For the molecule `CCN(CC)C(=O)c1cc(OCCc2ccc(Cl)cc2Cl)cc(C(=O)NCC2CCN(c3ccncc3)CC2)c1` [Example 232, 5-[2-(2,4-Dichloro-phenyl)-ethoxy]-N,N-diethyl-N′-(3,4,5,6-tetrahydro-2H-[1,4′]bipyridinyl-4-ylmethyl)-isophthalamide], the Ki came to 192 nM.
